Experimental data reported in patent publication US8163907B2, “Dihydropyridine calcium antagonist compounds, preparation methods, and medical uses thereof” (Cosunter Pharmaceutical Company, priority 2008, dated 2012).
Counter-ions that a name gives are not always drawn.

System: isolated rat's thoracic aorta ring
Test: Contraction of an isolated rat's thoracic aorta ring caused by KCl (vascular relaxation)
Format: cell-based
Details: 80 mmol/L KCl, n=6; for IC50: isolated rat thoracic aorta ring with complete endodermis, read-out: IC50, inhibition of contraction of a vascular ring with complete endodermis caused by KCl
From the text: The effect of compounds of the present invention to the contraction of an isolated rat's thoracic aorta ring caused by KCl is described as follows:
The present invention synthesizes 21 new DHP compounds, and some of the compounds are selected for performing pharmacological tests. With reference to Comparison of vasodilatation effect between quercetin and rutin in the isolated rat thoracic aorta authored by ZHOU Xin-mei, YAO Hui, XIA Man-li, et al, and published in Journal of Zhejiang University: Medical Sciences, 2006, 35(1), 29-33 for an embodiment.
A male SD rat, 240-260 g, supplied by Institute of Laboratory Animal Breeding and Reproduction, Qing Long Shan of Jiang Ning. Certificate of Quality No.: SCXK (So) 2002-0018.
NaCl:118.3 mmol/L, KCl:4.7 mmol/L, CaCl2: 2.5 mmol/L, MgSO4.7H2O:1.2 mmol/L, KH2PO4:1.2 mmol/L, NaHCO3:25 mmol/L, and glucose:11.1 mmol/L.
Hit a male rat at its head until it faints. Quickly remove the thoracic aorta, and put it into a K-H solution passed with a mixed gas having 95% O2+5% CO2. Carefully remove connective tissues around the thoracic aorta and cut the blood vessel into a vascular ring of 3 mm wide. Avoid any excessive pulling to prevent damages to the endodermis. Hang the vascular ring into a bathing trough containing 30 ml of K-H liquid, and keep passing the mixed gas of 95% O2+5% CO2, and maintain the temperature at 37±0.5[…]. Adjust the rest tension to 2.0 g. Keep it in equilibrium for 2 hrs, and change the liquid once every 15 min.
Inspection of the activity of the endodermis of the blood vessel: After the thoracic aorta ring is stable, change the liquid once, and add 1 μmol/L of NA into the bathing trough. After the contraction has reached the peak value for 15 min., add 1 μmol/L of Ach. If the expected contraction of the vascular relaxation is greater than 60% after Ach is added, then the endodermis is considered to be complete, or else the endodermis will be damaged.
A thoracic aorta ring with a complete endodermis is selected for conducting the experiment. After the changed liquid is stable, Add 80 mmol/L KCl to induce the maximum contraction amplitude, sequentially accumulate the medications, such that the medicine concentrations are 0.05 μmol/L, 0.1 μmol/L, 0.5 μmol/L, 1 μmol/L, 2 μmol/L, 4 μmol/L, and 10 μmol/L respectively. Record the change of tensions. The vascular relaxation level is indicated by the inhibition rate. In other words, KCl induces a difference of values between the maximum tension of the contraction and the vascular tension after medicines with different concentrations are added. The ratio of differences of the values to the maximum contraction amplitude induced by KCl reflects the level of vascular relaxation. The sample size of the arota rings for each medicine group is 6. In other words, the experiment is performed repeatedly for 6 times.

[1] = Rattus norvegicus, 0.1 μmol/L, x±S, read-out: Inhibition Rate (%)
[2] = Rattus norvegicus, 0.5 μmol/L, x±S, read-out: Inhibition Rate (%)
[3] = Rattus norvegicus, 1 μmol/L, x±S, read-out: Inhibition Rate (%)
[4] = Rattus norvegicus, 2 μmol/L, x±S, read-out: Inhibition Rate (%)
[5] = Rattus norvegicus, 4 μmol/L, x±S, read-out: Inhibition Rate (%)

Compound | IC50 [nM] | inhibition at 0.1 µM [1] [%] | inhibition at 0.5 µM [2] [%] | inhibition at 1 µM [3] [%] | inhibition at 2 µM [4] [%] | inhibition at 4 µM [5] [%] | inhibition at 10 µM (Rattus norvegicus, 10 μmol/L, x±S, read-out: Inhibition Rate (%)) [%] | Inhibition Rate (%) (0.1 μmol/L, x±S) | Inhibition Rate (%) (0.5 μmol/L, x±S) | Inhibition Rate (%) (1 μmol/L, x±S) | Inhibition Rate (%) (2 μmol/L, x±S) | Inhibition Rate (%) (4 μmol/L, x±S) | Inhibition Rate (%) (10 μmol/L, x±S) | inhibition at 0.05 µM (Rattus norvegicus, 0.05 μmol/L, x±S, read-out: Inhibition Rate (%)) [%]
COC(=O)C1=C(C)NC(C)=C(C(=O)OCCCN2CCN(CCOc3ccccc3OC)CC2)C1c1cccc([N+](=O)[O-])c1 (stereo not drawn) [Compound I4, 1,4-dihydro-2,6-dimethyl-4-(3-nitrophenyl)-3,5-pyridinecarboxylic acid methyl ester 3-(N-4-(2-(2-methoxyphenoxy)ethyl)piperazinyl)propyl ester hydrochloride] | 2000 | 13.2 ± 1.3 | 20.5 ± 2.2 | 33.8 ± 2.8 | 59.4 ± 4 | 62.4 ± 4.8 | 72 ± 4.7 |  |  |  |  |  |  | 
COC(=O)C1=C(C)NC(C)=C(C(=O)OCCCCN2CCN(CCOc3ccccc3OC)CC2)C1c1cccc([N+](=O)[O-])c1.Cl (stereo not drawn) [Compound I5, 1,4-dihydro-2,6-dimethyl-4-(3-nitrophenyl)-3,5-pyridinecarboxylic acid methyl ester-4-(N-4-(2-(2-methoxyphenoxy)ethyl)piperazinyl)butyl ester hydrochloride] | 500 |  |  |  |  |  |  | 24.5 ± 3.2 | 47.9 ± 3.9 | 66.0 ± 4.0 | 75.0 ± 3.5 | 91.6 ± 3.2 | 100.1 ± 3.0 | 
COC(=O)C1=C(C)NC(C)=C(C(=O)OCCN2CCN(CCOC(c3ccccc3)c3ccccc3)CC2)C1c1cccc([N+](=O)[O-])c1.Cl (stereo not drawn) [Compound I6, 1,4-dihydro-2,6-dimethyl-4-(3-nitrophenyl)-3,5-pyridinecarboxylic acid methyl ester2-(N-4-(diphenylmethoxyethyl)piperazinyl)ethyl ester hydrochloride] | 1900 |  |  |  |  |  |  | 9.3 ± 1.0 | 20.5 ± 2.5 | 33.7 ± 2.4 | 49.7 ± 3.5 | 66.9 ± 3.6 | 79.0 ± 4.5 | 
COC(=O)C1=C(C)NC(C)=C(C(=O)OCCN2CCN(CCOc3ccccc3OC)CC2)C1c1cccc([N+](=O)[O-])c1 (stereo not drawn) [Compound I14, 1,4-dihydro-2,6-dimethyl-4-(3-nitrophenyl)-3,5-pyridinecarboxylic acid methyl ester2-(N-4-(2-(2-methoxyphenoxy)ethyl)piperazinyl)ethyl ester hydrochloride] | 200 | 35.7 ± 3 | 62.9 ± 6.8 | 81.7 ± 3.3 | 96.2 ± 4.5 | 101 ± 3.4 |  |  |  |  |  |  |  | 27.4 ± 3.4
COC(=O)C1=C(C)NC(C)=C(C(=O)OCCCN2CCN(CC(O)COc3ccccc3OC)CC2)C1c1cccc([N+](=O)[O-])c1.Cl (stereo not drawn) [II2, 1,4-dihydro-2,6-dimethyl-4-(3-nitrophenyl)-3,5-pyridinecarboxylic acid methyl ester3-(N-4-(3-(2-methoxyphenoxy)-2-hydroxpropyl)piperazinyl)propyl ester hydrochloride] | 800 |  |  |  |  |  |  | 11.0 ± 1.5 | 32.2 ± 3.0 | 50.7 ± 5.7 | 65.2 ± 4.2 | 93.4 ± 3.1 | 101.2 ± 3.2 | 
Levamlodipine Besylate [reference compound] | 4100 |  |  |  |  |  |  | 4.5 ± 0.6 | 18.4 ± 2.6 | 37.7 ± 3.6 | 46.8 ± 4.1 | 69.0 ± 5.9 | 84.6 ± 6.1 | 
